In patent US9056835B2, “LPA2 receptor-specific benzoic acid derivatives” (University of Tennessee Research Foundation, priority 2012, dated 2015):

Target: T1, LPA4 (Homo sapiens, UniProt Q99677)
T1 construct: expressed in transfected cells
Test: LPA receptor-mediated Ca2+ mobilization assay, LPA4
Type: cell-based
Settings: for EC50: agonist, Ca2+ mobilization
Experimental: Similarity searches were performed separately using each fingerprint to quantitate similarity. Hits meeting the 80% similarity threshold from each search were ranked based on the Tanimoto coefficient measure of similarity to a target molecule NSC12404, and the top 75 unique hits from each fingerprint search were selected for further analysis. The 225 compounds selected for further analysis were clustered based on Tanimoto coefficients calculated using Molecular ACCess System-key fingerprints (MACCS keys) and evaluated using the diversity subset function implemented in MOE. This selected a diverse subset of 27 compounds for biological evaluation by choosing the middle compounds in each cluster. These 27 compounds were tested in Ca^2+ mobilization assays at a concentration of 10 μM using stable cell lines individually expressing LPA2 and also in vector-transfected control cells. Hits activating LPA2 were further tested using cells expressing the other established and putative LPA GPCRs. […] They arbitrarily selected GRI977143 for further characterization in cell-based assays.
J Biol Chem (2009) 284(25): 17304-17319). […] The cells were loaded with Fura-2-acetoxymethyl esther (Fura-2/AM) in Krebs buffer containing 0.01% pluronic acid for 30 min and rinsed with Krebs buffer before measuring Ca^2+ mobilization. The ratio of peak emissions at 510 nm after 2 min of ligand addition was determined for excitation wavelengths of 340 nm/380 nm. All samples were run in quadruplicate. […] The half maximally effective concentration (EC50), and inhibitory constant (Ki) values were calculated by fitting a sigmoid function to dose-response data points using KaleidaGraph software (version 4.1, Synergy Software; […]).
Mouse embryonic fibroblast (MEF) cells were isolated from E13.5 LPA1&2 double knockout (DKO) embryos. MEFs were transduced with empty vector or LPA2-containing lentiviruses and selected with 1.5 μg/ml puromycin. Cells were maintained in Dulbecco's modified Eagle medium (DMEM) supplemented with 10% (V/V) fetal bovine serum (FBS), 2 mM L-glutamine, 100 U/mL penicillin, and 100 μg/mL streptomycin. Serum-free medium contained 0.1% (W/V) BSA in DMEM. The rat intestinal epithelial cell line 6 (IEC-6) was obtained from the American Type Culture Collection (Rockville, Md.) at passage 13; passages 16-21 were used in all experiments. IEC-6 cells were maintained in a humidified 37° C. incubator in an atmosphere of 90% air and 10% CO2. Growth medium consisted of DMEM supplemented with 5% heat inactivated FBS, 10 μg/mL insulin, and 50 μg/mL gentamycin. The composition of the serum-starvation medium was the same as that of the full growth medium except that it contained no FBS. The McArdle rat hepatoma cell line (RH7777) stably expressing LPA2 receptors was a gift from Dr. Fumikazu Okajima (Gunma University, Maebashi, Japan). RH7777 cells stably expressing LPA1 or LPA3 receptors were generated in-house and had been characterized earlier. Wild type and LPA receptor (LPAR) stably transfected RH7777 cells were grown in DMEM supplemented with 10% FBS and 2 mM L-glutamine in the presence of 250 μg/ml G418. Chinese hamster ovary (CHO) cells stably expressing either vector or LPA4 receptor were a kind gift from Dr. Takao Shimizu (Tokyo University; Tokyo, Japan). Cells were cultured in Ham's F12 medium containing 10% FBS, 2 mM L-glutamine, and 350 μg/ml G418. Rat neuroblastoma cells (B103) were transduced with the lentivirus harboring wild type of FLAG-LPA5 and selected with puromycin to establish the stable cell lines. The stable cells were maintained in DMEM supplemented with 10% FBS and 0.4 μg/ml puromycin. GPR87- and P2Y10-expressing CHO cells and vector-transfected control cells were a gift from Dr. Norihisha Fujita (Ritsumeikan University; Shiga, Japan).

T1 sequence (Q99677 whole entry, species assumed): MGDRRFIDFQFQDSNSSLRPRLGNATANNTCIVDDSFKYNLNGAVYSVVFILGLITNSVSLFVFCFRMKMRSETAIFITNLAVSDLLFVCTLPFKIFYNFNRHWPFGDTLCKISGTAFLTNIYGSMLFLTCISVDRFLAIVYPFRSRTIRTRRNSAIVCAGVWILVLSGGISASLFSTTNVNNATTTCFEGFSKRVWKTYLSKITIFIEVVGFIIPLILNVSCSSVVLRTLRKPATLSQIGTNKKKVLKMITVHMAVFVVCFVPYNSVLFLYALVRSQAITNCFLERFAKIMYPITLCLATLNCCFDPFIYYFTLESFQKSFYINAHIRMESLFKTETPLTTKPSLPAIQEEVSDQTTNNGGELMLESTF

In the case of `O=C(O)c1ccccc1SCCCN1C(=O)c2cccc3cccc(c23)C1=O` [GRI977143], the EC50 is reported as > 10 µM.
With octadecenyl thiophosphate [OTP] the EC50 was 2 µM.
In the case of `O=C(O)c1cc(Cl)c(Cl)cc1C(=O)Nc1ccc2c(c1)C(=O)c1ccccc1-2` [Compound H2L5547924], the “inhibition of LPA4 Ca2+ response” value (10 μM, ~EC75 LPA 18:1) is reported as “partially inhibited” and the “LPA4 Imax (%)” value (inhibition by 10 μM compound of ~EC75 LPA 18:1 Ca2+ response) is reported as 51%.
In the case of `O=C(O)c1ccccc1C(=O)Nc1ccc2c(c1)C(=O)c1ccccc1-2` [NSC12404], the EC50 is reported as > 10 µM.
`O=C(O)c1ccccc1C(=O)Nc1ccc2c(c1)C(=O)c1ccccc1C2=O` [Compound H2L5828102] was tested, and the EC50 was > 10 µM.
